Where two headings read alike, the source gives them in different places.
Assays:
hA1AR = target: T1, hA1AR (Homo sapiens, UniProt P30542); assay: Radioligand binding competition, [3H]DPCPX, membranes from CHO-A1 cells; settings: for % at 1 μM hA1 (percentage displacement of specific binding): [3H]DPCPX, human CHO cells, n = 2
T1 sequence (P30542 1-326): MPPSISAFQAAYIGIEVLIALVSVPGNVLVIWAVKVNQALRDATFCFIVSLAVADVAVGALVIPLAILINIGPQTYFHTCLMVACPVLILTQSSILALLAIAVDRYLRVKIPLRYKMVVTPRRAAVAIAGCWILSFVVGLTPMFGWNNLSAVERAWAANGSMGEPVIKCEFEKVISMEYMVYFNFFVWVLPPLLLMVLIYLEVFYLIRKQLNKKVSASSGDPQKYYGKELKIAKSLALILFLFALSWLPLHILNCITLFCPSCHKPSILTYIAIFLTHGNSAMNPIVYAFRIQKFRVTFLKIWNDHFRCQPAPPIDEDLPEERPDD
Method in brief: (§1)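 Racemates, plus selected enantiomers after chiral resolution, were tested at 25 °C, with a 60 min incubation for one subtype and 30 min for others. Non-specific binding was defined with 10 μM or 100 μM R-PIA. Bound radioactivity was counted after washing and filtration.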

hA2AAR = target: T2, hA2AAR (Homo sapiens, UniProt P29274); assay: Radioligand binding competition, [3H]ZM241385, membranes from HeLa-A2A cells; settings: for % at 1 μM hA2A (percentage displacement of specific binding): [3H]ZM241385, human HeLa cells, n = 2
T2 construct: expressed in transfected cells; host or cells: HeLa (HeLa-A2A) cell membranes
Method in brief: as §1

hA3AR = target: T3, hA3AR (Homo sapiens, UniProt P0DMS8); assay: Radioligand binding competition, [3H]NECA, membranes from HeLa-A3 cells; settings: 1 μM, [3H]NECA, human HeLa cells, n = 2
T3 construct: expressed in transfected cells; host or cells: HeLa (HeLa-A3) cell membranes
T3 sequence (P0DMS8 1-318): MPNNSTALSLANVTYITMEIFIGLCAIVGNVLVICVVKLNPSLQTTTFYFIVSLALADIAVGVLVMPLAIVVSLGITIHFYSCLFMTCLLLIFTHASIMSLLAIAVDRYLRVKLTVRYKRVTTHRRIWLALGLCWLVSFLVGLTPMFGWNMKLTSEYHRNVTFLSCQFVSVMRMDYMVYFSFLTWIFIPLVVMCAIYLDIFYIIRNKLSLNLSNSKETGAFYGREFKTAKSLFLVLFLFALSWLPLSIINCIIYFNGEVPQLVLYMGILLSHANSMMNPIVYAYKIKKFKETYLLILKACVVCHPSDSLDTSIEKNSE
Method in brief: as §1

hA2BAR = target: T4, hA2BAR (Homo sapiens, UniProt P29275); assay: Radioligand binding competition, [3H]DPCPX, membranes from HEK-293-A2B cells; design: Exp. dG: unit not given here; settings: for % at 1 μM hA2B (percentage displacement of specific binding): [3H]DPCPX, human HEK-293 cells, n = 2; for Exp. dG: experimental binding free energy, Supplementary Table S3, unit not given (errors in kcal/mol)
T4 construct: host or cells: HEK-293 (HEK-293-A2B) cell membranes
T4 sequence (P29275 1-332): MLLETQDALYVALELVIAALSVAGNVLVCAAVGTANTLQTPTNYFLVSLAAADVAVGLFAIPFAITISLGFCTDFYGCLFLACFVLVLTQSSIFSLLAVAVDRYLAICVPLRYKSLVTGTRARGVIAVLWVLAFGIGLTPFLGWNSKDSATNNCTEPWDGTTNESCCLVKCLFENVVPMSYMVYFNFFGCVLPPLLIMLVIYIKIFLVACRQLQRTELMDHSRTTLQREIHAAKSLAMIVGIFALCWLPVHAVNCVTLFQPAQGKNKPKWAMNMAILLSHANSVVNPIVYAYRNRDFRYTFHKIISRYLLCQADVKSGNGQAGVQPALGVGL
Method in brief: as §1

[1] = displacement of specific [3H]DPCPX binding in human HEK-293 cells, n = 3, read-out: Ki hA2B

T2 sequence (P29274 whole entry): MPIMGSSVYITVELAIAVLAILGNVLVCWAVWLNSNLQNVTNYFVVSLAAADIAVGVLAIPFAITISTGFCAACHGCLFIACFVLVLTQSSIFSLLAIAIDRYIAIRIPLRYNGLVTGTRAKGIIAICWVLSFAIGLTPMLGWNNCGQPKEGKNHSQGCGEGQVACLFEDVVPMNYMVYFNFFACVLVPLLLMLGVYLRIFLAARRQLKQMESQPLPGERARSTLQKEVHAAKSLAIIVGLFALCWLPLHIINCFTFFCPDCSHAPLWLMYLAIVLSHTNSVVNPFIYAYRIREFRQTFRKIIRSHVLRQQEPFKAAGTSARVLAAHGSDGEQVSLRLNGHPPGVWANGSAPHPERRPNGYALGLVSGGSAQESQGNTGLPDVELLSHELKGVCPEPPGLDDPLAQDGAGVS

Compound | % at 1 μM hA1 (percentage displacement of specific binding) (hA1AR) | % at 1 μM hA2A (percentage displacement of specific binding) (hA2AAR) | % at 1 μM hA3 (percentage displacement of specific binding) (hA3AR) | % at 1 μM hA2B (percentage displacement of specific binding) (hA2BAR) | Ki (hA2BAR; [1]) | Ki (hA2BAR; supplementary CSV, no unit printed (nM in Tables 2-5), read-out: Ki_hA2B) | Exp. dG (hA2BAR) | Ki (hA2BAR; read-out: Ki hA2B) | Ki (hA1AR; displacement of specific [3H]DPCPX binding in human CHO cells, n = 3, read-out: Ki hA1) | Ki (hA2AAR; displacement of specific [3H]ZM241385 binding in human HeLa cells, n = 3, read-out: Ki hA2A) | Ki hA2B (hA2BAR; displacement of specific [3H]DPCPX binding in human HEK-293 cells, n = 3)
CCOC(=O)C1=C(C)Nc2nc3cc(Br)ccc3n2C1c1cccs1 (stereo not drawn) [16u] | 6% | 3% | 6% | 55% | – | – | – | – | – | – | –
CC1=C(C(=O)OC(C)C)C(c2cccs2)n2c(nc3cc(Br)ccc32)N1 (stereo not drawn) [16v] | 1% | 1% | 1% | – | 115 ± 3 nM | 115 nM | – | – | – | – | –
CCOC(=O)C1=C(C)Nc2nc3cc(Br)ccc3n2C1c1ccsc1 (stereo not drawn) [16w] | 1% | 9% | 1% | – | 537 ± 8 nM | – | – | – | – | – | –
CC1=C(C(=O)OC(C)C)C(c2ccsc2)n2c(nc3cc(Br)ccc32)N1 (stereo not drawn) [16x] | 2% | 1% | 4% | – | 61.1 ± 1.8 nM | – | – | – | – | – | –
CCOC(=O)C1=C(C)Nc2nc3ccc(F)cc3n2C1c1cocn1 (stereo not drawn) [17a] | 43% | 4% | 26% | – | 44.7 ± 1.4 nM | – | -10.02 | – | – | – | –
CC1=C(C(=O)OC(C)C)C(c2cocn2)n2c(nc3ccc(F)cc32)N1 (stereo not drawn) [17b] | 34% | 19% | 22% | – | 7.6 ± 0.6 nM | – | -11.07 | < 10 nM | – | – | –
CCOC(=O)C1=C(C)Nc2nc3ccc(Cl)cc3n2C1c1cocn1 (stereo not drawn) [17c] | – | 14% | 11% | – | 25.6 ± 1.2 nM | – | -10.35 | – | 227 nM | – | –
CC1=C(C(=O)OC(C)C)C(c2cocn2)n2c(nc3ccc(Cl)cc32)N1 (stereo not drawn) [17d] | 27% | 1% | 20% | – | 102 ± 7 nM | – | -9.528 | – | – | – | –
CCOC(=O)C1=C(C)Nc2nc3cc(F)ccc3n2C1c1cocn1 (stereo not drawn) [18a] | 25% | 16% | 16% | – | 14.7 ± 1.1 nM | – | -10.68 | – | – | – | –
CCOC(=O)C1=C(C)Nc2nc3cc(Cl)ccc3n2C1c1cocn1 (stereo not drawn) [18c] | 30% | 13% | 15% | – | 8.6 ± 0.4 nM | – | -11 | < 10 nM | – | – | –
CC1=C(C(=O)OC(C)C)C(c2cocn2)n2c(nc3cc(Cl)ccc32)N1 (stereo not drawn) [18d] | 23% | 35% | 23% | – | 6.4 ± 0.7 nM | – | -11.17 | < 10 nM | – | – | –
CC1=C(C(=O)OC(C)C)[C@H](c2ccco2)n2c(nc3cc(F)ccc32)N1 [(R)-16b] | 15% | 5% | 19% | 41% | – | – | – | – | – | – | –
CC1=C(C(=O)OC(C)C)[C@H](c2ccco2)n2c(nc3cc(Cl)ccc32)N1 [(R)-16j] | 7% | 37% | 5% | 51% | – | – | – | – | – | – | –
CC1=C(C(=O)OC(C)C)[C@@H](c2ccoc2)n2c(nc3cc(Cl)ccc32)N1 [(R)-16l] | 37% | – | 24% | – | 2.6 ± 0.3 nM | – | – | – | – | 96.3 ± 6 nM | –
CC1=C(C(=O)OC(C)C)[C@H](c2ccco2)n2c(nc3cc(Br)ccc32)N1 [(R)-16r] | 12% | 7% | 2% | 35% | – | – | – | – | – | – | –
CCOC(=O)C1=C(C)Nc2nc3cc(Cl)ccc3n2[C@H]1c1cocn1 [(R)-18c] | 9% | 32% | 15% | 26% | – | – | – | – | – | – | –
CC1=C(C(=O)OC(C)C)[C@@H](c2ccco2)n2c(nc3cc(Cl)ccc32)N1 [(S)-16j] | 48% | 19% | 6% | – | 2.04 ± 0.2 nM | – | – | – | – | – | –
CC1=C(C(=O)OC(C)C)[C@H](c2ccoc2)n2c(nc3cc(Cl)ccc32)N1 [(S)-16l] | 24% | 25% | 19% | 53% | – | – | – | – | – | – | –
CCOC(=O)C1=C(C)Nc2nc3cc(Br)ccc3n2[C@H]1c1ccoc1 [(S)-16s] | 11% | 16% | 10% | 34% | – | – | – | – | – | – | –
CCOC(=O)C1=C(C)Nc2nc3cc(Cl)ccc3n2[C@@H]1c1cocn1 [(S)-18c] | 22% | 17% | 6% | – | 3.39 ± 0.2 nM | – | – | – | – | – | –
CC1=C(C(=O)OC(C)C)[C@@H](c2ccco2)n2c(nc3ccccc32)N1 [(S)-ISAM-140] | 2% | 12% | 4% | – | 0.89 ± 0.2 nM | – | – | – | – | – | sub-nanomolar
